This data set concerns mice. The data set is described as follows: Acute toxicity by intravenous administration. The format is in vivo. The note with it: intravenously administered to tail vein in five mice at the dose of 50 mg/kg. The method, then:
On the other hand, it was confirmed that the acute toxicity of all extent of the compounds of the present invention was more than 50 mg/kg by intravenous administration. Therefore, glycerol derivatives of the present invention may be considered to be sufficiently safe and suitable for medical use. For example, the mortality (dead/used) in glycerol derivatives of the present invention, i.e. compounds prepared in Example 1(h) and 11(a) was 0/5 and 0/5, respectively, when each glycerol compound was intravenously administered to tail vein in five mice at the dose of 50 mg/kg.

Regarding `CCCCCCCCCCCCCCCCOCC(COCCCCCCC[n+]1ccsc1)OCC` (centres unmarked) [Example 1(h)], the “mortality (dead/used)” value is given as 0/5.
Take `CCCCCCCCCCCCCCCCOCC(COCCCCCCC[N+]1(C)CCCC1)NC(C)=O` (centres unmarked) [11(a)]: the “mortality (dead/used)” value is given as 0/5.
